Results from patent publication US8748440B2 (Exelixis, Inc., priority 2002, dated 2014).

Biological target: T1, FXR (CMX-hFXR) (Homo sapiens, UniProt Q96RI1)
T1 construct: expressed in transfected cells; host or cells: CV-1 African Green Monkey Kidney cells
T1 sequence (Q96RI1 1-472 isoform Q96RI1-2): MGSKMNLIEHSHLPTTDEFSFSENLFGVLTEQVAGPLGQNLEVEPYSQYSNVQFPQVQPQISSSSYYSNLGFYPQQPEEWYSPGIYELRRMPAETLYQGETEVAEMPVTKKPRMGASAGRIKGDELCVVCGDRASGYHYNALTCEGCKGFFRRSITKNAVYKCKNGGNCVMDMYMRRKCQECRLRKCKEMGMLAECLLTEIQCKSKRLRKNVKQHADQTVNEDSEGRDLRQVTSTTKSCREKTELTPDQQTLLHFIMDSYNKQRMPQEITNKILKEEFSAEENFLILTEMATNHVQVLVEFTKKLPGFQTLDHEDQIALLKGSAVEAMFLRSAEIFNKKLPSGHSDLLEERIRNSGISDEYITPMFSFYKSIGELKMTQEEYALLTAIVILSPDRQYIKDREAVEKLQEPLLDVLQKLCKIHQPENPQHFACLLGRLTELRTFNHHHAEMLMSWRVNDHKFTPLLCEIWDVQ
T1 sequence (P19793 1-462 partner): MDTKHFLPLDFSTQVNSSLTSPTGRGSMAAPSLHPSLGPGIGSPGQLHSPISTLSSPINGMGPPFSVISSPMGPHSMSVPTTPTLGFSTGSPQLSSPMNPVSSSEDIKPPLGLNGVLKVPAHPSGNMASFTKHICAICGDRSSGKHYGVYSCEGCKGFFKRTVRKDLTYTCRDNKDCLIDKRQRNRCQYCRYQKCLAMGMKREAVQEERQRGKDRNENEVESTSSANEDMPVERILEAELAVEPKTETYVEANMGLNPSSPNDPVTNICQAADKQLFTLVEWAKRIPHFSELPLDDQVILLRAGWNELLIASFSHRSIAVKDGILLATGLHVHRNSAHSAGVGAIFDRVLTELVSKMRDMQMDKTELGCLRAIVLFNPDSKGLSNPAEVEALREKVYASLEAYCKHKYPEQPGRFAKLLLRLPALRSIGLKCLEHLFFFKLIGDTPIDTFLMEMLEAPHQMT
Assay: FXR co-transfection assay (FXR/ECREx7)
Format: cell-based
Conditions: for EC50: CV-1 cells, agonist mode; for Emax: relative to maximum response of chenodeoxycholic acid (CDCA), read-out: % efficacy
Procedure: The basic co-transfection protocol for measuring FXR activity is as follows. CV-1 African Green Monkey Kidney cells are plated 24 hours before transfection to achieve approximately 70-80 percent confluency. Cells are transfected with CMX-hFXR, CMX-RXRα, Luc12 reporter (ECREx7-Tk-Luciferase), and a CMX-β-Galactosidase expression vector (See WO 00/76523). The transfection reagent used is DOTAP (Boehringer Mannheim). Cells are incubated with the DOTAP/DNA mixture for 5 hours after which the cells are harvested and plated onto either 96 well or 384 well plates containing the appropriate concentration of test compound. The assay is allowed to continue for an additional 18-20 hours, after which the cells are lysed, with lysis buffer (1% triton X 100, 10% glycerol, 5 mM Dithiothreitol, 1 mM EGTA, 25 mM Tricine, pH 7.8) and the luciferase activity is measured in the presence of Luciferase assay buffer (0.73 mM ATP, 22.3 mM Tricine, 0.11 mM EGTA, 0.55 mM Luciferin, 0.15 mM Coenzyme A, 0.5 mM HEPES, 10 mM Magnesium sulphate) on a standard luminometer plate reader (PE Biosystems, NorthStar Reader).
Both the FXR/ECREx7 co-transfection assay (Example 15) and the TR-FRET assay (Example 16) can be used to establish the EC50/IC50 values for potency and percent activity or inhibition for efficacy. Efficacy defines the activity of a compound relative to a high control (chenodeoxycholic acid, CDCA) or a low control (DMSO/vehicle). The dose response curves are generated from an 8 point curve with concentrations differing by 1/2 LOG units. Each point represents the average of 4 wells of data from a 384 well plate. The curve for the data is generated by using the equation: Y=Bottom+(Top−Bottom)/(1+10^((Log EC50−X)*HillSlope))
The EC50/IC50 is therefore defined as the concentration at which an agonist or antagonist elicits a response that is half way between the Top (maximum) and Bottom (baseline) values. The EC50/IC50 values represented are the averages of at least 3 independent experiments. The determination of the relative efficacy or % control for an agonist is by comparison to the maximum response achieved by chenodeoxycholic acid that is measured individually in each dose response experiment.
For the antagonist assay, CDCA is added to each well of a 384 well plate to elicit a response. The % inhibition for each antagonist is therefore a measurement of the inhibition of the activity of CDCA. In this example, 100% inhibition would indicate that the activity of CDCA has been reduced to baseline levels, defined as the activity of the assay in the presence of DMSO only.

SMILES	EC50	Emax
Cc1ccc(-n2c(C(C)N(C)S(=O)(=O)c3ccc(C(C)(C)C)cc3)nc3ccc(-c4cccs4)cc3c2=O)cc1 (stereo not shown)	~600 nM	~110%
COc1ccc(-n2c(C(C)N(C)S(=O)(=O)c3ccc(C(C)(C)C)cc3)nc3ccc(OC)cc3c2=O)cc1 (stereo not shown) [4-tert-butyl-N-{1-[6-methoxy-3-(4-methoxyphenyl)-4-oxo-3,4-dihydroquinazolin-2-yl]ethyl}-N-methylbenzenesulfonamide]	~300 nM	~190%
